Test results published in ChEMBL document CHEMBL4477206, “Benzylpiperidine-Linked Diarylthiazoles as Potential Anti-Alzheimer's Agents: Synthesis and Biological Evaluation” (J Med Chem, 2016).
Active and inactive are the calls of the source. The calls are words filed in the database; no cut-off is given here.

Experiments:
Cholinesterase = Cholinesterase (Equus caballus, UniProt P81908); test: Inhibition of equine serum BuChE using BTCI as substrate preincubated for 30 mins followed by substrate addition measured after 30 mins by Ellman assay
Acetylcholinesterase [1] = target: T1, Acetylcholinesterase (Homo sapiens, UniProt P22303); test: Mixed inhibition of human erythrocyte AChE at 0.05 to 0.4 uM using ATCI as substrate preincubated for 30 mins followed by substrate addition measured after 30 mins by Lineweaver-Burk plot analysis
[2] = Toxicity in Swiss albino mouse assessed as mortality at 677 to 2000 mg/kg, po for 14 days; format: organism-based; settings: in vivo, 336 h
[3] = Toxicity in Swiss albino mouse assessed as changes in fur sleekness at 677 to 2000 mg/kg, po for 14 days; format: organism-based; settings: in vivo, 336 h
[4] = Toxicity in Swiss albino mouse assessed as change in water and food consumption at 677 to 2000 mg/kg, po for 14 days; format: organism-based; settings: in vivo, 336 h
[5] = Toxicity in Swiss albino mouse assessed as change in body weight at 677 to 2000 mg/kg, po for 14 days; format: organism-based; settings: in vivo, 336 h
[6] = Toxicity in Swiss albino mouse assessed as heart damage at 677 to 2000 mg/kg, po treated for 14 days measured on 15th day post treatment; format: organism-based; settings: in vivo, 336 h
[7] = Toxicity in Swiss albino mouse assessed as kidney damage at 677 to 2000 mg/kg, po treated for 14 days measured on 15th day post treatment; format: organism-based; settings: in vivo, 336 h
[8] = Toxicity in Swiss albino mouse assessed as liver damage at 677 to 2000 mg/kg, po treated for 14 days measured on 15th day post treatment; format: organism-based; settings: in vivo, 336 h
[9] = Cmax in Wistar rat at 5 mg/kg, po administered as a single dose by HPLC analysis; format: ADME, organism-based; parameters: dose 5 mg/kg, route oral; settings: in vivo
[10] = Tmax in Wistar rat at 5 mg/kg, po administered as a single dose by HPLC analysis; format: ADME, organism-based; settings: in vivo
[11] = AUC(0 to 8 hrs) in Wistar rat at 5 mg/kg, po administered as a single dose by HPLC analysis; format: ADME, organism-based; parameters: time < 6 hr, dose 5 mg/kg, route oral; settings: in vivo
[12] = Terminal half life in Wistar rat at 5 mg/kg, po administered as a single dose by HPLC analysis; format: ADME, organism-based; settings: in vivo, read-out: beta t1/2 (converted)
Mus musculus [13] = test: (§1) Neuroprotective activity in Swiss albino mouse assessed as inhibition of scopolamine-induced elevation in MDA level in brain at 5 mg/kg, po administered 30 mins prior to scopolamine challenge administered for 9 days measured after 20 mins of compound incubation by TBARS assay relative to vehicle-treated control; format: functional, organism-based
Mus musculus [14] = test: as §1, with “elevation” for “inhibition”, “decrease” for “elevation”, “catalase” for “MDA”, “1 min” for “20 mins”, “spectrophotometrical analysis” for “TBARS assay”; format: functional, organism-based
Rattus norvegicus = test: Neuroprotective activity in Wistar rat brain hippocampus assessed as increase in Abeta (1 to 42) insult-induced decrease in spontaneous alterations at 5 mg/kg, po administered for 15 days measured for last 5 days of treatment by Y Maze assay; format: functional, organism-based
[15] = Permeability of the compound at 100 ug/ml incubated for 120 mins by PAMPA; format: ADME; settings: read-out: Peff
Acetylcholinesterase [16] = target: T1, Acetylcholinesterase; settings: at 10 µM
Description: Inhibition of human erythrocyte AChE-induced Abeta (1 to 42) aggregation at 10 uM incubated for 24 hrs by thioflavin-T fluorescence assay

in vitro [17] = settings: human, SH-SY5Y cells
Description: Cytotoxicity against human SH-SY5Y cells assessed as cell viability at 40 uM after 24 hrs by MTT assay

in vitro [18] = settings: human, SH-SY5Y cells; remark: listed apart in the source
Description: Cytotoxicity against human SH-SY5Y cells assessed as cell viability at 80 uM after 24 hrs by MTT assay

T1 sequence (P22303 whole entry): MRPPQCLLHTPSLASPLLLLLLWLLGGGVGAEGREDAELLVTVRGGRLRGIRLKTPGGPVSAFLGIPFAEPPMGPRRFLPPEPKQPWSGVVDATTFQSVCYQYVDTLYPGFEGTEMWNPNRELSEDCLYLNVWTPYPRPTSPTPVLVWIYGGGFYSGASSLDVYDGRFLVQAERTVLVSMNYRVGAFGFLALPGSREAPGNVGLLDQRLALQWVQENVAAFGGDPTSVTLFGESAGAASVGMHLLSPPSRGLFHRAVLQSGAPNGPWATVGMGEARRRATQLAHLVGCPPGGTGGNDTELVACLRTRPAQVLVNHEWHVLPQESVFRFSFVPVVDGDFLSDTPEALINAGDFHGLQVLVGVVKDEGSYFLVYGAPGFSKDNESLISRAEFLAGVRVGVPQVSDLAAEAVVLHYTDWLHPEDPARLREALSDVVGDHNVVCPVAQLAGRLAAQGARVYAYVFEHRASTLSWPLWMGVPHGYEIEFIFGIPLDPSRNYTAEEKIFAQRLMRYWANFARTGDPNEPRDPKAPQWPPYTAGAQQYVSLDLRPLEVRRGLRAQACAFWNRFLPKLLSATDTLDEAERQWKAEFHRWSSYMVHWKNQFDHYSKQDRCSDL
Cholinesterase, sequence (P81908 whole entry): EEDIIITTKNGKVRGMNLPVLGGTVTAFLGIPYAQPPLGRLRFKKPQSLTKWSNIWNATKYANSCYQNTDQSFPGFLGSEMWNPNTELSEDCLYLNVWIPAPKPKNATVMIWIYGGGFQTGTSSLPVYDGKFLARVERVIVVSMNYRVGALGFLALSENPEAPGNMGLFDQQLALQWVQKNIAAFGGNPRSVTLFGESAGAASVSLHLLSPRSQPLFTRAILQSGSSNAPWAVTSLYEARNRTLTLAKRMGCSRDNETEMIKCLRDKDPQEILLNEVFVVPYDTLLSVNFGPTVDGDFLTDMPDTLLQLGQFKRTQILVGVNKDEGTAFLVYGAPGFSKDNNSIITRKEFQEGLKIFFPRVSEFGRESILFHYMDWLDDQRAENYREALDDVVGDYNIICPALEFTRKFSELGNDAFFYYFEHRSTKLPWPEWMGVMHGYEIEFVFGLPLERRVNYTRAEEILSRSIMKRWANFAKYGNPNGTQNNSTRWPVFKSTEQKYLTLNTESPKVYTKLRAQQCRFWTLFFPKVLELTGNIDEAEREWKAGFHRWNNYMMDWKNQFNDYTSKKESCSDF

Which results are given for Cc1ccc(-c2nc(NCC3CCN(Cc4cc(F)cc(F)c4)CC3)sc2-c2ccc(C)cc2)cc1?
IC50 (Cholinesterase): 1840 nM; inhibition (Acetylcholinesterase [1]): Active; Activity [2]: Non-Toxic; Activity [3]: Non-Toxic; Activity [4]: Non-Toxic; Activity [5]: Non-Toxic; Activity [6]: Non-Toxic; Activity [7]: Non-Toxic; Activity [8]: Non-Toxic; Cmax [9]: 21.2 ng/mL; Tmax [10]: 3.66 h; AUC(0-t) at 6 h [11]: 587 ng·h/mL; half-life [12]: 19.4 h; Activity (Mus musculus [13]): Active; Activity (Mus musculus [14]): Active; Activity (Rattus norvegicus): Active; Papp at 2 h, 100 ug/ml [15]: 14.5 ×10⁻⁶ cm/s; inhibition (Acetylcholinesterase [16]): 27.6%; viability at 24 h, 40 µM (in vitro [17]): 95.2%; viability at 24 h, 80 µM (in vitro [18]): 91.3%
